The conditions of data set [1]: rat, in vivo, 0 min.
For data set [2] the following is noted: mouse, in vivo; for % dosage, Urine: iv.
Protocol: Groups of four mice were individually injected in the tail vein with 20 μM/Kg of body weight (10-20 μCi) of Gd-153 labeled DTPA-bis (2,6-dimethylaniline). Each group of mice was sacrificed at intervals of 1,3 and 24 hours. The blood was collected from the heart just before the animals were sacrificed and the animals were dissected and individual organs were assayed.
For data set [3] the following is noted: in vivo; cited from earlier work.
Data set [4] is described as follows: Osmotic pressure of Gd-DTPA bis pyridoxylamine solution. Type of data set: physicochemical. The note with it: 0.144 moles/liter solution; pH 7.08. The procedure: 0.50 g of the DTPA-bis pyridoxylamine synthesized in Example 4 was reacted with 0.15 g of Gd(OH)3 and 3.6 ml of water. The pH of the mixture was adjusted to 7.51 with sodium hydroxide. The mixture was then heated in an oil bath at a temperature of about 90° C. for about 45 minutes. The mixture was cooled and the pH adjusted to 7.08 with sodium hydroxide. 5.0 ml of the product was recovered. The concentration of the resulting Gd-DTPA bis pyridoxylamine was determined to be 0.144 moles/liter with an osmotic pressure of 646 m Os moles/liter.

The conditions of data set [5]: MRI; cited from earlier work.
For data set [6] the following is noted: cited from earlier work.

Like-named read-outs stand apart in the source and are kept apart here.

On to `Cc1cccc(C)c1NC(=O)CN(CCN(CCN(CC(=O)[O-])CC(=O)Nc1c(C)cccc1C)CC(=O)[O-])CC(=O)[O-].[153Gd+3]` [Gadolinium III chelate of DTPA-bis (2,6-dimethylaniline)], for which the “% Retained, whole body” value in data set [1] is 100%. In data set [2] (60 min), the “% dosage, Blood” value is “.4441 % DOSAGE”; the “% dosage, Bone” value is “.1489 % DOSAGE”; the “% dosage, Large Intestine” value is listed as “.0781 % DOSAGE”; the “% dosage, Left Kidney” value is recorded as “.7115 % DOSAGE”. For the same compound, in data set [2] (60 min), the “% dosage, Liver” value came to 22.95 % DOSAGE; the “% dosage, Lungs” value is on record as “.0326 % DOSAGE”; the “% dosage, Muscle” value is recorded as “.6207 % DOSAGE”; the “% dosage, Right Kidney” value was “.6676 % DOSAGE”. Moreover, in data set [2] (60 min), the “% dosage, Small Intestine” value is 36.08 % DOSAGE; the “% dosage, Spleen” value is “.0214 % DOSAGE”; the “% dosage, Stomach” value is given as “.2113 % DOSAGE”. In data set [2] (180 min), the “% dosage, Blood” value is given as “.0188 % DOSAGE”; the “% dosage, Bone” value is recorded as “.0678 % DOSAGE”; the “% dosage, Large Intestine” value is listed as 1.471 % DOSAGE; the “% dosage, Left Kidney” value is “.4528 % DOSAGE”. Also, in data set [2] (180 min), the “% dosage, Liver” value was determined as 2.805 % DOSAGE; the “% dosage, Lungs” value is given as “.0075 % DOSAGE”; the “% dosage, Muscle” value was “.6183 % DOSAGE”; the “% dosage, Right Kidney” value is on record as “.5235 % DOSAGE”. Besides, in data set [2] (180 min), the “% dosage, Small Intestine” value was determined as 52.10 % DOSAGE; the “% dosage, Spleen” value is on record as “.0096 % DOSAGE”; the “% dosage, Stomach” value is on record as “.1254 % DOSAGE”. In data set [2] (1440 min), the “% dosage, Blood” value is reported as “.0038 % DOSAGE”; the “% dosage, Bone” value is listed as “.1551 % DOSAGE”; the “% dosage, Large Intestine” value is recorded as “.5091 % DOSAGE”; the “% dosage, Left Kidney” value was “.1050 % DOSAGE”. In data set [2] (1440 min), the “% dosage, Liver” value turned out to be 1.659 % DOSAGE; the “% dosage, Lungs” value is reported as “.0085 % DOSAGE”; the “% dosage, Muscle” value was “.0861 % DOSAGE”; the “% dosage, Right Kidney” value is given as “.1102 % DOSAGE”. For the same compound, in data set [2] (1440 min), the “% dosage, Small Intestine” value was “.1533 % DOSAGE”; the “% dosage, Spleen” value is “.0042 % DOSAGE”; the “% dosage, Stomach” value is recorded as “.0468 % DOSAGE”. Further, in data set [2] (1 h), the “% dosage, Urine” value came out at 26.30 % DOSAGE. Moreover, the “% dosage, Urine” value in data set [2] (3 h) is recorded as 32.13 % DOSAGE.
With `O=C([O-])CN(CCN(CC(=O)[O-])CC(=O)[O-])CCN(CC(=O)[O-])C(COCc1ccccc1)C(=O)[O-].[Gd+3]` (stereo not drawn) [Gd-BOPTA, gadolinium-benzyloxyproprionyl tetracetate], the “liver concentration of injected dose” value in data set [3] is 37%.
In turn, `Cc1ncc(CO)c(CNC(=O)CN(CCN(CCN(CC(=O)[O-])CC(=O)NCc2c(CO)cnc(C)c2O)CC(=O)[O-])CC(=O)[O-])c1O.[Gd+3]` [Gd-DTPA bis pyridoxylamine, Gadolinium III chelate of DTPA-bis pyridoxylamide] had an osmotic pressure in data set [4] of 646 m Os moles/liter.
For `O=C([O-])CN(CCN(CC(=O)[O-])CC(=O)O)CCN(CC(=O)[O-])CC(=O)O.[Gd+3]` [Gd-DTPA, gadolinium-diethylene triamino pentaacetic acid], the “blood clearance and excretion” value in data set [3] is “rapid clearance from the blood and subsequent prompt renal excretion”.
On to “gadolinium-hepatic iminodiacetic acid [Gd-HIDA]”, for which, in data set [5], the “image enhancement of the gall bladder” value is given as “failed to enhance the image of the gall bladder” and the “image enhancement of the liver” value was “only faintly enhanced images of the liver”. Moreover, in data set [6], the in vivo stability entry was “unstable in vivo”.

Source of the values: patent US5463030A, “Metal chelating agents for medical application” (Research Foundation of the State of New York, priority 1994, dated 1995).
